According to patent US4308201A, “Phenylalanylvalylarginine derivative, process for producing same and method for measuring activity of enzymes using same” (Torii & Co., Ltd., priority 1978, dated 1981):
Residues, ends and D or L forms follow the SMILES beside them. *: point of attachment. pNA = O=[N+]([O-])c1ccc(N*)cc1; Bz = O=C(c1ccccc1)*

Legend:
Format in all cases: biochemical
thrombin = assay: Measurement of the activity of thrombin with the compound as substrate (naphthol liberated, FVB colour, absorbance); conditions: for relative sensitivity, Thrombin: methods of Example 3 and Comparative Example 2, p-nitroanilide substrate = 1.0
Method: To 1.7 ml of 50 mM phosphate buffer solution (pH 7.0) were added 0.1 ml of thrombin at various concentrations and 0.2 ml of N-benzoyl-L-phenylalanyl-L-valyl-L-arginine 1-naphthyl ester hydrochloride solution (1.5 mM), and the resulting mixture was subjected to incubation at 25° C. for 30 min. The mixture was cooled in iced water, and 0.1 ml of 1% FVB was added thereto. The resulting mixture was allowed to stand at 0° C. for 10 min, and 1 ml of glacial acetic acid was further added thereto. The color thus developed was measured as absorbance (505 nm) by means of a spectrophotometer, thereby determining the amount of the naphthol liberated by hydrolysis with the enzyme. As a control, the buffer solution same as above but free from thrombin was used. The amount of the naphthol liberated corresponded to the activity of the enzyme.
To 0.1 ml of thrombin were added 0.3 ml of Nα-tosyl-L-arginine methyl ester hydrochloride solution (10 micromoles/0.4 ml of 5% DMSO) and 0.6 ml of phosphate buffer solution (pH 7.4), and the resulting mixture was subjected to incubation at 37° C. for 30 min, after which 1.5 ml of a hydroxylamine solution (a mixture of equal amounts of 2 M NH2 OH hydrochloride and 3.5 M NaOH) was added thereto. The resulting mixture was allowed to stand at room temperature for 15 min. Thereto were added 1 ml of 18% trichloroacetic acid solution, 1 ml of 4 N hydrochloric acid, and 1 ml of 10% ferric chloride solution. The resulting mixture was thoroughly stirred and then centrifuged at 3,000 r.p.m. for 10 min. The color thus developed of the supernatant was measured as absorbance (530 l nm) by means of a spectrophotometer. The value obtained corresponds to the amount of the substrate remaining unhydrolyzed with thrombin, and therefore, and activity of the enzyme corresponds to the difference between the value obtained when no enzyme was used (control) and the value obtained after the enzyme reaction.
To 2.15 ml of […] tris HCl buffer solution (pH 8.0) were added 0.1 ml of thrombin at various concentrations and 0.25 ml of an N-benzoyl-L-phenylalanyl-L-valyl-L-arginine p-nitroanilide hydrochloride solution (1mM/H2 O), and the resulting mixture was subjected to incubation at 37° C. for 30 min. To the mixture was added 0.3 ml of glacial acetic acid, and the color developed was measured as absorbance (405 nm) by means of a spectrophotometer.

Kallikrein Plasma = assay: Measurement of the activity of plasma kallikrein with the compound as substrate; conditions: methods of Example 3 and Comparative Example 2; p-nitroanilide substrate = 1.0
Kallikrein Tissue = assay: Measurement of the activity of tissue kallikrein with the compound as substrate; conditions: methods of Example 3 and Comparative Example 2; p-nitroanilide substrate = 1.0
Factor Xa = assay: Measurement of the activity of Factor Xa with the compound as substrate; conditions: methods of Example 3 and Comparative Example 2; p-nitroanilide substrate = 1.0
Urokinase = assay: Measurement of the activity of urokinase with the compound as substrate; conditions: methods of Example 3 and Comparative Example 2; p-nitroanilide substrate = 1.0

| SMILES | relative sensitivity, Thrombin (thrombin) | sensitivity relative to that of Nα-tosyl-L-arginine methyl ester (thrombin; thrombin activity measured with the compound as substrate) | detection sensitivity relative to Comparative Example 2 (thrombin; versus N-benzoyl-L-phenylalanyl-L-valyl-L-arginine p-nitroanilide hydrochloride as substrate, standard curves of the drawing) | detection sensitivity relative to Comparative Example 1 (thrombin; versus Nα-tosyl-L-arginine methyl ester hydrochloride as substrate (hydroxamate method), standard curves of the drawing) | relative sensitivity, Kallikrein Plasma (Kallikrein Plasma) | relative sensitivity, Kallikrein Tissue (Kallikrein Tissue) | relative sensitivity, Factor Xa (Factor Xa) | relative sensitivity, Urokinase (Urokinase) |
| --- | --- | --- | --- | --- | --- | --- | --- | --- |
| CC(C)[C@H](NC(=O)[C@H](Cc1ccccc1)NC(=O)c1ccccc1)C(=O)N[C@@H](CCCNC(=N)N)C(=O)Oc1cccc2ccccc12.Cl [N-benzoyl-L-phenylalanyl-L-valyl-L-arginine 1-naphthyl ester hydrochloride] | 5.0 | about 31 times | about 5 times | about 30 times | 12.5 | 30 | 15 | 40 |
| CC(C)[C@H](NC(=O)[C@H](Cc1ccccc1)NC(=O)c1ccccc1)C(=O)N[C@@H](CCCNC(=N)N)C(=O)Nc1ccc([N+](=O)[O-])cc1.Cl [N-benzoyl-L-phenylalanyl-L-valyl-L-arginine p-nitroanilide hydrochloride, reference compound] (Bz-Phe-Val-Arg-pNA) | 1.0 | – | – | – | 1.0 | 1.0 | 1.0 | 1.0 |
